# Results taken from the supplement of paper PMC4862054.
# Assays:
# Conditions in all cases: incubation time: 72 h
# [1] = tested on: HCC1599; test: normalised response (% of control), CellTiter-Glo; higher = more viable cells (100 = DMSO, 0 = benzethonium chloride kill control)
# Method in brief: (§1)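 In 384-well plates holding compound at 5 concentrations in 10-fold steps over a 10,000-fold range specific to each compound, breast cancer cell lines were seeded as 20 µl suspension and incubated 72 h. CellTox Green fluorescence was measured at 485/520 nm, after which CellTiter-Glo luminescence was measured following 10 min at room temperature. Plate signals were normalised to 0.1 % DMSO (100) and a positive kill control (0), and each value is the normalised signal at a single concentration.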
# [2] = tested on: SK-BR-3; test: as above
# Method in brief: as §1
# [3] = tested on: MCF-10A; test: as above
# Method in brief: as §1
# [4] = tested on: MDA-MB-231; test: as above
# Method in brief: as §1
# [5] = tested on: HCC1937; test: as above
# Method in brief: as §1
# [6] = tested on: DU-4475; test: as above
# Method in brief: as §1
# [7] = tested on: HDQ-P1; test: as above
# Method in brief: as §1
# [8] = tested on: CAL-85-1; test: as above
# Method in brief: as §1
# [9] = tested on: CAL-120; test: as above
# Method in brief: as §1
# [10] = tested on: MDA-MB-453; test: as above
# Method in brief: as §1
# [11] = tested on: MFM-223; test: as above
# Method in brief: as §1
# [12] = tested on: CAL-148; test: as above
# Method in brief: as §1
# [13] = tested on: HCC1143; test: as above
# Method in brief: as §1
# [14] = tested on: MDA-MB-468; test: as above
# Method in brief: as §1
# [15] = tested on: CAL-51; test: as above
# Method in brief: as §1
# [16] = tested on: BT-474; test: as above
# Method in brief: as §1
# [17] = tested on: MDA-MB-436; test: as above
# Method in brief: as §1
# [18] = tested on: Hs578T; test: as above
# Method in brief: as §1
# [19] = tested on: BT-549; test: as above
# Method in brief: as §1
# [20] = tested on: HCC1599; test: normalised response (% of control), CellTox Green; higher = less cell death (100 = DMSO, 0 = benzethonium chloride kill control)
# Method in brief: as §1
# [21] = tested on: MCF-10A; test: as above
# Method in brief: as §1
# [22] = tested on: MDA-MB-231; test: as above
# Method in brief: as §1
# [23] = tested on: HCC1937; test: as above
# Method in brief: as §1
# [24] = tested on: DU-4475; test: as above
# Method in brief: as §1
# [25] = tested on: HDQ-P1; test: as above
# Method in brief: as §1
# [26] = tested on: CAL-85-1; test: as above
# Method in brief: as §1
# [27] = tested on: CAL-120; test: as above
# Method in brief: as §1
# [28] = tested on: MDA-MB-453; test: as above
# Method in brief: as §1
# [29] = tested on: MFM-223; test: as above
# Method in brief: as §1
# [30] = tested on: CAL-148; test: as above
# Method in brief: as §1
# [31] = tested on: HCC1143; test: as above
# Method in brief: as §1
# [32] = tested on: MDA-MB-468; test: as above
# Method in brief: as §1
# [33] = tested on: CAL-51; test: as above
# Method in brief: as §1
# [34] = tested on: BT-474; test: as above
# Method in brief: as §1
# [35] = tested on: MDA-MB-436; test: as above
# Method in brief: as §1
# [36] = tested on: Hs578T; test: as above
# Method in brief: as §1
# [37] = tested on: BT-549; test: as above
# Method in brief: as §1
Structure (SMILES),normalised response [1] [%],normalised response [2] [%],normalised response [3] [%],normalised response [4] [%],normalised response [5] [%],normalised response [6] [%],normalised response [7] [%],normalised response [8] [%],normalised response [9] [%],normalised response [10] [%],normalised response [11] [%],normalised response [12] [%],normalised response [13] [%],normalised response [14] [%],normalised response [15] [%],normalised response [16] [%],normalised response [17] [%],normalised response [18] [%],normalised response [19] [%],normalised response [20] [%],normalised response [21] [%],normalised response [22] [%],normalised response [23] [%],normalised response [24] [%],normalised response [25] [%],normalised response [26] [%],normalised response [27] [%],normalised response [28] [%],normalised response [29] [%],normalised response [30] [%],normalised response [31] [%],normalised response [32] [%],normalised response [33] [%],normalised response [34] [%],normalised response [35] [%],normalised response [36] [%],normalised response [37] [%]
CCC/C=C/C=C/C(=O)O[C@H]1/C(=C/C(=O)OC)C[C@H]2C[C@H]([C@@H](C)O)OC(=O)C[C@H](O)C[C@@H]3C[C@H](OC(C)=O)C(C)(C)[C@](O)(C[C@@H]4C/C(=C/C(=O)OC)C[C@H](/C=C/C(C)(C)[C@]1(O)O2)O4)O3 [Bryostatin 1] (1 nM),99.3,66.2,107,95.9,93,91.6,88.6,95.5,103,103,104,116,102,99.8,58,92.3,102,79.6,101,111,98.5,113,123,106,75.6,97.7,103,94.6,104,111,117,105,91,86.8,100,94,111
Cc1nc(Nc2ncc(C(=O)Nc3c(C)cccc3Cl)s2)cc(N2CCN(CCO)CC2)n1 [Dasatinib] (10 nM),94.3,101,71.5,70.6,90.5,99.4,74.8,95.7,93.7,99.5,95,99.2,90.2,92.2,82,74.5,97.1,94.3,97.2,97.7,58.3,84.2,93.1,110,96.7,102,100,106,98.9,93.9,56.7,107,86.6,102,98,84.7,111
C[C@]12O[C@H](C[C@]1(O)CO)n1c3ccccc3c3c4c(c5c6ccccc6n2c5c31)CNC4=O [Lestaurtinib] (10 nM),96.9,82.4,83.7,101,94.3,98,102,102,92.2,81.1,97.2,107,105,78.7,103,98.8,93.8,90.2,109,90.6,91.2,97.3,103,94.2,104,96.2,97.4,101,103,87.7,50.3,60,98.4,99.3,78.8,108,100
c1cc(CN2CCCNCCNCCCNCC2)ccc1CN1CCCNCCNCCCNCC1 [Plerixafor] (100 nM),95.3,84.1,79.7,97.1,96.6,88.1,103,101,100,83,85.1,89.8,104,97.6,67.7,98.8,92,94.8,109,88.9,97.7,96.5,73.9,91.7,101,92.5,93.5,91.3,50.4,94.4,95.1,89.8,59.6,85.5,74.2,99.3,95.9
C[C@]12C=CC(=O)C=C1CC[C@@H]1[C@@H]2[C@@H](O)C[C@@]2(C)[C@H]1CC[C@]2(O)C(=O)CO [Prednisolone] (100 nM),105,104,102,146,103,106,89.3,109,87.4,95,110,114,102,109,112,146,101,113,96,103,95.5,134,115,98.8,106,85.8,102,104,96.1,103,118,108,117,101,89.9,110,97.2
Cn1cc(CNCC2CCN(c3ncc(C(=O)NO)cn3)CC2)c2ccccc21 [Quisinostat] (10 nM),89.8,70.1,78.8,103,85.2,83.9,75.4,72.5,86.2,56.9,103,87.6,75.8,91.2,99.2,106,87.2,85.7,88,104,96.7,101,114,97.8,109,77.9,91.4,97.7,103,95.8,114,57.7,126,93,92.3,88.8,95.5
CNC(=O)c1cc(Oc2ccc(NC(=O)Nc3ccc(Cl)c(C(F)(F)F)c3)cc2)ccn1 [Sorafenib] (10 nM),108,103,108,105,95.2,101,107,102,112,100,106,107,102,115,95.9,97.8,105,98.8,108,91.9,66.7,108,66.5,98.4,107,102,96,106,101,103,95.9,97.8,106,99.3,103,95,108
CCN(CC)CCNC(=O)c1c(C)[nH]c(/C=C2\C(=O)Nc3ccc(F)cc32)c1C [Sunitinib] (10 nM),96.3,101,98.5,107,99.2,104,99.3,103,109,97.4,105,106,108,102,98.8,101,96.9,103,108,114,109,104,66.9,98.4,111,89.5,99.3,107,98,105,57.7,141,108,100,103,82.4,92.9
